We go through 30 compounds from ChEMBL document CHEMBL1138909, “Structure-activity studies of oxazolidinone analogs as RNA-binding agents” (Bioorg Med Chem Lett, 2006).

By Kd is commonly meant a measure of binding affinity in units of concentration. Read a low Kd as a tighter complex.

Active and inactive are the calls of the source. No cut-off for these calls is given here.

Common to all, as to assay type: nucleic-acid assay
The test system of experiment [1] is Nucleic Acid. The experiment in a line: Binding activity at antiterminator RNA AM1A(C11U) after 10 mins.
The subject of experiment [2] is Nucleic Acid. The experiment in a line: Binding activity at antiterminator RNA AM1A relative to methyl 2-((4R,5S)-4-benzyl-2-oxo-5-((2-phenylacetoxy)methyl)oxazolidin-3-yl)benzoate after 10 mins.
The subject of experiment [3] is Nucleic Acid. In words: Binding activity at antiterminator RNA AM1A after 10 mins.
In experiment [4] the target is Nucleic Acid. The experiment in a line: Binding activity at antiterminator RNA AM1A(C11U) after 120 mins.
Experiment [5] concerns Nucleic Acid. The experiment in a line: Binding activity at antiterminator RNA AM1A upto 200 uM after 10 mins.
Experiment [6] deals with Nucleic Acid. The experiment in a line: Binding activity at antiterminator RNA AM1A(C11U) upto 200 uM after 10 mins.

In the case of `COC(=O)c1ccccc1N1C(=O)O[C@H](COC(=O)C2CCCCC2)[C@H]1CC1CCCCC1`, the Activity came to 0.8 in the experiment on Nucleic Acid [1] and 0.61 in the experiment with Nucleic Acid [2].
For `CCCCCCCC(=O)OC[C@H]1OC(=O)N(c2ccccc2C(=O)OC)[C@@H]1CCCc1ccccc1`, in that order: 0.76 and 1.21.
For `COC(=O)c1ccccc1N1C(=O)O[C@H](COC(=O)C2CCCCC2)[C@H]1Cc1ccccc1`, in that order: 1.19 and 0.64.
For `CCCCN1C(=O)O[C@H](COC(=O)Cc2ccccc2)[C@H]1CC1CCCCC1`, in that order: 0.78 and 0.58.
On to `COc1ccc(N2C(=O)O[C@H](COC(=O)Cc3ccccc3)[C@H]2CC2CCCCC2)cc1`, for which the Activity is 1.05 with Nucleic Acid [1] and 0.71 in the experiment on Nucleic Acid [2].
Take `COC(=O)c1ccccc1N1C(=O)O[C@H](COC(=O)Cc2ccccc2)[C@H]1Cc1ccccc1`: the Activity was determined as 1.47 in the experiment with Nucleic Acid [1] and 1 in the experiment on Nucleic Acid [3].
Consider `CCCCN1C(=O)O[C@H](COC(=O)C2CCCCC2)[C@H]1CCCc1ccccc1`, for which the Activity in the experiment on Nucleic Acid [1] is 0.78; in the experiment on Nucleic Acid [2], 0.65.
As to `COc1ccc(N2C(=O)O[C@H](COC(=O)Cc3ccccc3)[C@H]2Cc2ccccc2)cc1`, the Activity with Nucleic Acid [1] was 0.23; in the experiment on Nucleic Acid [2], 0.81. The Kd on Nucleic Acid [1] was determined as 25 µM; on Nucleic Acid [3], 3.4 µM.
Consider `CCCCCCCC(=O)OC[C@H]1OC(=O)N(c2ccccc2C(=O)OC)[C@@H]1Cc1ccccc1`, for which the figures for the Activity in the experiment on Nucleic Acid [1] and in the experiment with Nucleic Acid [2] were 1.06 and 1.19, respectively.
Regarding `CCCCN1C(=O)O[C@H](COC(=O)C2CCCCC2)[C@H]1CC1CCCCC1`, the Activity in the experiment on Nucleic Acid [1] worked out at 0.7; in the experiment on Nucleic Acid [2], 0.54.
As for `CCCCN1C(=O)O[C@H](COC(=O)Cc2ccccc2)[C@H]1CCCc1ccccc1`, the Activity with Nucleic Acid [1] stood at 0.7; in the experiment with Nucleic Acid [2] it was 0.72.
For `COc1ccc(N2C(=O)O[C@H](COC(=O)C3CCCCC3)[C@H]2Cc2ccccc2)cc1`, in that order: 0.77 and 0.73.
As for `COC(=O)c1ccccc1N1C(=O)O[C@H](COC(=O)Cc2ccccc2)[C@H]1CCCc1ccccc1`, the Activity came to 1.12 with Nucleic Acid [1] and 0.79 with Nucleic Acid [2].
For `CCCCCCCC(=O)OC[C@H]1OC(=O)N(CCCC)[C@@H]1CC1CCCCC1`, in that order: 1.05 and 0.73.
For `CCCCCCCC(=O)OC[C@H]1OC(=O)N(c2ccccc2C(=O)OC)[C@@H]1CC1CCCCC1`, in that order: 0.97 and 0.47.
With `CCCCCCC(=O)OC[C@H]1OC(=O)N[C@@H]1Cc1ccccc1`, the Kd stood at 14.3 µM on Nucleic Acid [4] and 10 µM at Nucleic Acid [3].
For `CCCCCCCC(=O)OC[C@H]1OC(=O)N(c2ccc(OC)cc2)[C@@H]1Cc1ccccc1`, the Activity with Nucleic Acid [1] is 0.68; with Nucleic Acid [2], 0.43.
With `CCCCCCCC(=O)OC[C@H]1OC(=O)N[C@@H]1Cc1ccccc1`, the result in the experiment on Nucleic Acid [5] and with Nucleic Acid [6] was inactive.
As to `COc1ccc(N2C(=O)O[C@H](COC(=O)Cc3ccccc3)[C@H]2CCCc2ccccc2)cc1`, in the experiment on Nucleic Acid [2], the Activity was determined as 0.75.
For the compound `O=C(Cc1ccccc1)OC[C@H]1OC(=O)N[C@@H]1Cc1ccccc1`, the Kd on Nucleic Acid [1] stood at 125 µM; at Nucleic Acid [3] it was 9 µM.
Take `CCCCCCCC(=O)OC[C@H]1OC(=O)N(c2ccc(OC)cc2)[C@@H]1CC1CCCCC1`: the Activity in the experiment on Nucleic Acid [1] stood at 0.78; in the experiment on Nucleic Acid [2], 0.58.
For `COc1ccc(N2C(=O)O[C@H](COC(=O)C3CCCCC3)[C@H]2CC2CCCCC2)cc1`, in that order: 0.82 and 0.61.
As to `COC(=O)c1ccccc1N1C(=O)O[C@H](COC(=O)Cc2ccccc2)[C@H]1CC1CCCCC1`, the Activity in the experiment on Nucleic Acid [1] came out at 0.77; in the experiment on Nucleic Acid [2], 0.39.
For `CCCCCCCC(=O)OC[C@H]1OC(=O)N(CCCC)[C@@H]1Cc1ccccc1`, in that order: 1.37 and 1.16.
For the compound `CCCCCCCC(=O)OC[C@H]1OC(=O)N(CCCC)[C@@H]1CCCc1ccccc1`, the Activity is 0.69 with Nucleic Acid [1] and 0.56 in the experiment with Nucleic Acid [2].
For `COc1ccc(N2C(=O)O[C@H](COC(=O)C3CCCCC3)[C@H]2CCCc2ccccc2)cc1`, in that order: 0.7 and 0.64.
On to `CCCCN1C(=O)O[C@H](COC(=O)Cc2ccccc2)[C@H]1Cc1ccccc1`, for which the results for the Activity with Nucleic Acid [1] and in the experiment with Nucleic Acid [2] were 0.36 and 0.48, respectively.
For `COC(=O)c1ccccc1N1C(=O)O[C@H](COC(=O)C2CCCCC2)[C@H]1CCCc1ccccc1`, in that order: 0.78 and 0.71.
Regarding `CCCCN1C(=O)O[C@H](COC(=O)C2CCCCC2)[C@H]1Cc1ccccc1`, the Activity in the experiment on Nucleic Acid [1] turned out to be 0.59; in the experiment with Nucleic Acid [2] it was 0.48.
For `CCCCCCCC(=O)OC[C@H]1OC(=O)N(c2ccc(OC)cc2)[C@@H]1CCCc1ccccc1`, in that order: 0.72 and 0.65.
